From ChEMBL document CHEMBL4052759, “Discovery of DS79182026: A potent orally active hepcidin production inhibitor” (Bioorg Med Chem Lett, 2017) come the findings set out here.

What is called inhibition is the change of the read-out against control, counted positive when it falls.

For assay [1], the system named is Mast/stem cell growth factor receptor Kit (Homo sapiens), P10721 [T670I]. The experiment in a line: Inhibition of KIT T670I mutant (unknown origin) at 0.49 uM relative to control.
Assay [2] deals with Cyclin-dependent kinase 5/CDK5 activator 1 (Homo sapiens) (UniProt Q00535+Q15078). Kind of assay: Inhibition of CDK5/p25 (unknown origin) at 0.49 uM relative to control. The format is protein-complex assay.
Assay [3] addresses Serine/threonine-protein kinase DCLK1 (Homo sapiens) (UniProt O15075). Kind of assay: Inhibition of DCAMKL1 (unknown origin) at 0.49 uM relative to control.
Assay [4] addresses Serine/threonine-protein kinase 24 (Homo sapiens) (UniProt Q9Y6E0). Kind of assay: Inhibition of MST3 (unknown origin) at 0.49 uM relative to control.
For a further assay, the species on record is Homo sapiens. Kind of assay: Inhibition of PKA (unknown origin) at 0.49 uM relative to control.
For assay [5], the target named is cAMP-dependent protein kinase catalytic subunit PRKX (Homo sapiens) (UniProt P51817). Kind of assay: Inhibition of PRKX (unknown origin) at 0.49 uM relative to control.
For assay [6], the target named is Homeodomain-interacting protein kinase 3 (Homo sapiens) (UniProt Q9H422). Kind of assay: Inhibition of HIPK3 (unknown origin) at 0.49 uM relative to control.
The test system of assay [7] is Proto-oncogene tyrosine-protein kinase receptor Ret (Homo sapiens), P07949 [V804L]. Kind of assay: Inhibition of Ret V804L mutant (unknown origin) at 0.49 uM relative to control.
The target in assay [8] is Rho-associated protein kinase 2 (Homo sapiens) (UniProt O75116). The experiment in a line: Inhibition of ROCK2 (unknown origin) at 0.45 uM relative to control.
In assay [9] the target is Protein kinase C beta (Homo sapiens) (UniProt P05771). The experiment in a line: Inhibition of PKC-beta2 (unknown origin) at 0.45 uM relative to control.
Assay [10] deals with Cytoplasmic tyrosine-protein kinase BMX (Homo sapiens) (UniProt P51813). The experiment in a line: Inhibition of BMX (unknown origin) at 0.45 uM relative to control.
Assay [11] has as its target MAP/microtubule affinity-regulating kinase 3 (Homo sapiens) (UniProt P27448). The experiment in a line: Inhibition of c-TAK1 (unknown origin) at 0.45 uM relative to control.
The test system of assay [12] is Mitogen-activated protein kinase 14 (Homo sapiens), Q16539 [T106M]. Kind of assay: Inhibition of SAPK2a T106M mutant (unknown origin) at 0.45 uM relative to control.
The target of assay [13] is Proto-oncogene tyrosine-protein kinase ROS (Homo sapiens) (UniProt P08922). The experiment in a line: Inhibition of ROS (unknown origin) at 0.45 uM relative to control.
Assay [14] addresses Vascular endothelial growth factor receptor 3 (Homo sapiens) (UniProt P35916). Kind of assay: Inhibition of FLT4 (unknown origin) at 0.45 uM relative to control.
Assay [15] addresses T1, Calcium/calmodulin-dependent protein kinase type IV (Homo sapiens) (UniProt Q16566).
T1 sequence (whole entry): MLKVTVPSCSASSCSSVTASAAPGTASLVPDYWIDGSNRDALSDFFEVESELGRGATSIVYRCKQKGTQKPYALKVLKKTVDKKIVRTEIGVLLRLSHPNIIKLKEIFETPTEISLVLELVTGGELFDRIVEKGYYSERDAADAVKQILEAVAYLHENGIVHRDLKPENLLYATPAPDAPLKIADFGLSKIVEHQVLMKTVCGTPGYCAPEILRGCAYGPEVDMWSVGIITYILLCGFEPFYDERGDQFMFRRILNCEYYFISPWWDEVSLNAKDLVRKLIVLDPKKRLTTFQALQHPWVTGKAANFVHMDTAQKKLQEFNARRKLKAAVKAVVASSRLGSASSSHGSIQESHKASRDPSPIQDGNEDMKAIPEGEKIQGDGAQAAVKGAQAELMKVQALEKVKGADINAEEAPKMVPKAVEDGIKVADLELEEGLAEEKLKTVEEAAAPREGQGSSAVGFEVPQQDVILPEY
Kind of assay: Inhibition of CAMK4 (unknown origin) at 0.45 uM relative to control.

Assay [16] concerns Hepatocyte growth factor receptor (Homo sapiens), P08581 [M1250T]. Kind of assay: Inhibition of MET M1250T mutant (unknown origin) at 0.45 uM relative to control.
Assay [17] concerns the target Receptor-type tyrosine-protein kinase FLT3 (Homo sapiens) (UniProt P36888). The experiment in a line: Inhibition of FLT3 (unknown origin) at 0.45 uM relative to control.
Assay [18] deals with Mitogen-activated protein kinase 1 (Homo sapiens) (UniProt P28482). The experiment in a line: Inhibition of Erk2 (unknown origin) at 0.078 uM relative to control.
Assay [19] deals with T2, Serine/threonine-protein kinase Sgk1 (Homo sapiens) (UniProt O00141).
T2 sequence (whole entry): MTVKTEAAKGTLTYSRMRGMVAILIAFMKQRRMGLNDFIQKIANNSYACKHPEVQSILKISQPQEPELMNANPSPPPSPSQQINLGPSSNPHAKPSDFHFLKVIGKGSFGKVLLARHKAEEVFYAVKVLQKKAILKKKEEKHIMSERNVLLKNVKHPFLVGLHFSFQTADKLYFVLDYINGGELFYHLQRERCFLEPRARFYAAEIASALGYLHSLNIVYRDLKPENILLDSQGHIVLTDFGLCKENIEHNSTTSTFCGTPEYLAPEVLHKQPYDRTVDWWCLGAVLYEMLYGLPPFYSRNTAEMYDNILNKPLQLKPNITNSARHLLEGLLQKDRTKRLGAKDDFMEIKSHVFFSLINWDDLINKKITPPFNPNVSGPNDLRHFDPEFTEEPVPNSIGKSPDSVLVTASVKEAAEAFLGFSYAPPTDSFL
Kind of assay: Inhibition of SGK1 (unknown origin) at 0.078 uM relative to control.

Assay [20] concerns the target T3, Serine/threonine-protein kinase 3 (Homo sapiens) (UniProt Q13188).
T3 sequence (whole entry): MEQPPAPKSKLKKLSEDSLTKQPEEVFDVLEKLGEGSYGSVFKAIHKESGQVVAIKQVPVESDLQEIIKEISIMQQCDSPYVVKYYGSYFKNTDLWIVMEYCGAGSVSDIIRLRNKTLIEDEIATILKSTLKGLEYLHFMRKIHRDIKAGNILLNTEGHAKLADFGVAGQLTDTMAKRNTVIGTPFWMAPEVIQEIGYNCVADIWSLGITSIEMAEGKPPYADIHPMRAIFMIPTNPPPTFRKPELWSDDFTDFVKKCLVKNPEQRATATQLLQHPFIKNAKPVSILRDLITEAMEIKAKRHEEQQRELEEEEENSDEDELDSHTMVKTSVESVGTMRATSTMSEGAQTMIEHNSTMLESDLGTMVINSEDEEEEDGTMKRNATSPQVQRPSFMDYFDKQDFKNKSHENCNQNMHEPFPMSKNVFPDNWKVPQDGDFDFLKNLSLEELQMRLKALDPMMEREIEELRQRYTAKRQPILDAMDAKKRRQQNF
The experiment in a line: Inhibition of MST2 (unknown origin) at 0.078 uM relative to control.

The target of assay [21] is Cyclin-dependent kinase 2 (Homo sapiens) (UniProt P24941). The experiment in a line: Inhibition of CDK2 (unknown origin) at 0.078 uM relative to control.

For `Cc1[nH]nc(C2CC2)c1-c1ccc2c(NC(=O)C3CC3)noc2c1`, the inhibition in [1] is -1.7%; in [2] it was 4.3%; in assay [3], 0%; in assay [4], 2.3%; in the assay filed under Homo sapiens it was 2.3%; in assay [5], -1.7%. Further, the inhibition in assay [6] was 1.3%; in assay [7], -0.7%.
Turning to `Cc1n[nH]c(C)c1-c1ccc2c(NC(=O)c3ccc(N4CCN(C)CC4)cc3)n[nH]c2c1`, the inhibition in [8] worked out at 0.7%; in [9], 3.7%; in assay [10], 4.7%; in assay [11] it was 15%; in assay [12], 1.3%; in assay [13], 1.3%. Also, the inhibition in assay [14] amounted to 10%; in assay [15], 0%; in assay [16], 5%; in [17], 96.7%.
On to `COC(=O)Nc1noc2cc(-c3c(-c4ccccn4)n[nH]c3C)ccc12`, for which the inhibition was -0.7% in [18], -10% in assay [19], 2% in assay [20] and -4.3% in [21].
